The source of these data is patent US9187784B2, “EphA4 is a disease modifier in motor neuron disease” (VIB VZW, priority 2011, dated 2015).

The series has as its system zebrafish embryos with knockdown of Smn. Briefly: rescue of motor axon phenotype induced by knockdown of Smn (SMA model). It counts as in vivo. The protocol: FIG. 14: Inhibiting EphA4 signaling rescues motor axonopathies induced by overexpression of mutant TDP-43 and knockdown of Smn. Y-axes show motor axon length of zebrafish embryos (30 hpf) expressing TDP^WT (black bar) or TDP^A315T (white bar) (Panels A, B) or with unaltered (black bar) or reduced expression levels of Smn (white bar) (Panels C, D). Smn knockdown was established by injection of 3 ng (Panel C) or 6 ng (Panel D) atg-smn morpholino. Ctr-smn morpholino was injected as control. RTK1 signaling was inhibited by injection of 3 ng atg-RTK1 morpholino (shaded bars) (Panels A, C) or by treatment with C1 (500 μM, shaded bars) (Panels B, D). Injection of ctr-RTK1 morpholino and application of a 1/250 dilution of DMSO were used as control. […]
A morpholino database of translation-blocking morpholinos (atg-mo) was used to perform a morpholino-based knockdown screening in a zebrafish model for ALS.^13 The standard control morpholino (5′-[…]-′3) (SEQ ID NO:4), provided by Gene tools, was used as control. Three nanograms of morpholino were co-injected with 1.43 ng of SOD1 mRNA and the effect of gene knockdown on the mutant SOD1-induced axonopathy analyzed. […]

On to “5′-CTGTGAACACAAGCGCAGCCATTGG-′3 (all phosphorodiamidate morpholino (PMO)) [atg-RTK1]”, for which the “effect on motor axon phenotype induced by knockdown of Smn” value is on record as “rescued the motor axon phenotype induced by knockdown of Smn”.
